The values that follow come from patent US6348614B1 (priority 1996, dated 2002).

Like-named read-outs stand apart in the source and are kept apart here.

Experiment [1] relates to Plasmopara viticola. The experiment can be described thus: Downy mildew in grapes (Table 9). It counts as in vivo. Conditions: 500 ppm, 10 days after inoculation. As for the experimental part:
Two days after spraying plants were inoculated with sporangial suspension of P.viticola ([…]) onto their lower leaf surface and placed in 100% relative humidity for 20 hr. The plants were then placed in a growth cabinets 20° C. for 10 days. Disease development was assessed according to the abaxial leaf surfaces area covered with fungal sporulation.

For experiment [2], the system named is Phytophthora infestans. It counts as in vivo. Conditions: potato, 2000 ppm.
The test system of experiment [3] is Pseudoperonospora cubensis. In words: Downy mildew in melon (Table 7). Conditions: 500 ppm, 7 days after inoculation.
Procedure: Cucumber plants (cv,Dlila) and melon plants (cv.Ein Dor) were raised from seeds in 0.2 liter pots in the greenhouse. At 3 weeks after sowing when had 3 true leaves they were inoculated with sporangial suspension (1000 sporangia/ml) of P.cubensis (resistant to metalaxyl) and placed in 100% relative humidity in the dark for 20 hr. They were then place in a 20° C. growth cabinet for 7 days and assessed for disease development. Percentage leaf area covered with disease symptoms was evaluated and control efficacy was calculated relative to control inoculated plants.
Experiment [4] deals with Erysiphe graminis tritici. The experiment can be described thus: Powdery mildew in wheat, additional examples (Table 6). Format: in vivo. Conditions: 500 ppm, 7 days after inoculation. As for the experimental part:
Wheat plants (cv.Shafir) were raised from seed in the greenhouse, 30 plants per 0.2 liter pot. When the first leaf was fully developed plants were sprayed with the test solutions and placed in a 20° C. growth cabinet. Two days after spraying plants were dusted with conidia of E. graminis tritict so that about 100 spores were settled on 1 cm^2 of leaf area (both surfaces). […] Control efficacy was calculated relative to number of colonies developed on the control-inoculated untreated plants.

Take `CCC(C)OC(=O)CC(C)NS(=O)(=O)c1ccc(C)cc1` (stereo not drawn) [compound 20, D,L N-4-methylbenzenesulfonyl-3-aminobutyric 1-methylpropyll ester]: in experiment [1], the “Control efficacy % 10d” value turned out to be 100%.

Turning to `CCCCCCCCOC(=O)CC(C)NS(=O)(=O)c1ccccc1` (racemic) [Example 7, DL-N-benzenesulfonyl-3-aminobutyric acid n-octyl ester], the Control Efficacy % in experiment [2] (3 days after inoculation) came out at 100%; in experiment [2] (4 days after inoculation), 100%; in experiment [2] (6 days after inoculation), 82%; in experiment [2] (8 days after inoculation), 77%.

Turning to `CC(CC(=O)OCCC(Cl)(Cl)Cl)NS(=O)(=O)c1ccccc1` (stereo not drawn) [compound 19, D,L N-benzenesulfonyl-3-aminobutyric acid 2-(trichloromethyl)ethyl ester], in experiment [1], the “Control efficacy % 10d” value was determined as 94%. For the same compound, in experiment [3], the “Control efficacy % 7 days” value worked out at 83%.

As for `CC(CC(=O)Oc1cc(Cl)cc(Cl)c1)NS(=O)(=O)c1ccccc1` (stereo not drawn) [compound 53, D,L N-benzensulfonyl-3-aminobutyric acid 3,5-dichlorophenyl ester], the “Control efficacy (%) 7d” value in experiment [4] is listed as 100%.

As for `CCCCCCCOC(=O)CC(C)NC(=O)c1ccccc1C` (stereo not drawn) [compound 32, D,L N-2-methylbezoyl-3-aminobutyric acid heptyl ester], the “Control efficacy (%) 7d” value in experiment [4] is reported as 83%. In experiment [3], the “Control efficacy % 7 days” value amounted to 77%.

For the compound `CC(CC(=O)OCCCl)NC(=O)c1ccccc1` (racemic) [Example 11, DL-N-benzoyl-3-aminobutyric acid 2-chloroethyl ester], the Control Efficacy % in experiment [2] (3 days after inoculation) is reported as 95%; in experiment [2] (4 days after inoculation), 92%; in experiment [2] (6 days after inoculation) it was 82%; in experiment [2] (8 days after inoculation), 70%.

As for `C=CCOC(=O)CC(C)NC(=O)c1ccccc1` (stereo not drawn) [compound 42, N-benzoyl-3-aminobutyric acid-2 propenyl ester], the “Control efficacy (%) 7d” value in experiment [4] is on record as 77%.

Regarding `CCCCCCCCOC(=O)CC(C)NC(=O)c1ccc(C)c(C)c1` (stereo not drawn) [compound 54, D,L N-3,4-dimethylbenzoyl-3-aminobutyric acid octyl ester], the “Control efficacy (%) 7d” value in experiment [4] was found to be 69%.

For the compound `CCCC(C)COC(=O)CC(C)NC(=O)c1c(Cl)cccc1Cl` (stereo not drawn) [compound 25, D,L N-2,6-dichlorobenzoyl-3-aminobutyric acid 2-methylpentyl ester], the “Control efficacy % 10d” value in experiment [1] is 100%. Besides, the “Control efficacy % 7 days” value in experiment [3] is reported as 80%.

Consider `CCCOC(=O)CC(C)NS(=O)(=O)c1ccccc1` (stereo not drawn) [compound 41, D,L N— benzenesulfonyl-3-aminobutyric acid propyl ester], for which the “Control efficacy (%) 7d” value in experiment [4] came out at 77%.

Take `Cc1ccc(S(=O)(=O)NC(C)CC(=O)OCCBr)cc1` (stereo not drawn) [compound 33, D,L N-4-methylbenzenesulfonyl-3-aminobutyric acid 2-bromoethyl ester]: the “Control efficacy % 7 days” value in experiment [3] came to 75%.

In the case of `CCC(C)OC(=O)CC(C)NS(=O)(=O)c1ccccc1` (stereo not drawn) [Example 8, N-benzenesulfonyl-3-aminobutyric acid-sec butyl ester], the Control Efficacy % is 100% in experiment [2] (3 days after inoculation), 92% in experiment [2] (4 days after inoculation), 87% in experiment [2] (6 days after inoculation) and 50% in experiment [2] (8 days after inoculation).

`CCCCC(C)OC(=O)CC(C)NC(=O)c1ccc(C)cc1` (stereo not drawn) [compound 46, D,L N-4-methylbezoyl-3-aminobutyric acid 1-methylpentyl ester]: in experiment [4], the “Control efficacy (%) 7d” value was 69%.

Take `CC(CC(=O)OCCCc1ccccc1)NS(=O)(=O)c1ccccc1` (stereo not drawn) [compound 17, D,L N-benzenesulfonyl-3-aminobutyric acid 3-phenylpropyl ester]: in experiment [1], the “Control efficacy % 10d” value worked out at 97%. In addition, the “Control efficacy % 7 days” value in experiment [3] is reported as 87%.

Take `Cc1ccc(C(=O)NC(C)CC(=O)OCCCc2ccccc2)cc1` (stereo not drawn) [compound 26, D,L N-4-methylbenzoyl-3-aminobutyric acid 3-phenylpropyl ester]: the “Control efficacy % 10d” value in experiment [1] was found to be 99%.

`CCCCCCCOC(=O)CC(C)NC(=O)c1cc(C)cc(C)c1` (stereo not drawn) [compound 13, D,L N-3,5-dimethylbezoyl-3-aminobutyric acid heptyl ester]: the “Control efficacy (%) 7d” value in experiment [4] came to 72%.

With `CCCC(C)OC(=O)CC(C)NS(=O)(=O)c1ccccc1` (stereo not drawn) [Example 9, N-benzenesulfonyl-3-aminobutyric acid 1-methyl-1-butyl ester], the Control Efficacy % in experiment [2] (3 days after inoculation) turned out to be 99%; in experiment [2] (4 days after inoculation), 97%; in experiment [2] (6 days after inoculation), 82%; in experiment [2] (8 days after inoculation), 62%.

On to `CCCCCCCOC(=O)CC(C)NC(=O)c1c(F)cccc1F` (stereo not drawn) [compound 14, D,L N-2,6-difluorobenzoyl-3-aminobutyric acid heptyl ester], for which the “Control efficacy % 10d” value in experiment [1] is listed as 100%.

`CCCCC(C)OC(=O)CC(C)NC(=O)c1ccc(Cl)cc1` (stereo not drawn) [compound 18, D,L N-4-cholrobenzoyl-3-aminobutyric acid 1-methylpentyl ester]: the “Control efficacy % 10d” value in experiment [1] is 91%. Besides, in experiment [3], the “Control efficacy % 7 days” value stood at 87%.

Regarding `CCCCC(C)OC(=O)CC(C)NS(=O)(=O)c1ccc(C)cc1` (stereo not drawn) [compound 16, D,L N-4-methylbenzenesulfonyl-3-aminobutyric acid i-methylpentyl ester], the “Control efficacy (%) 7d” value in experiment [4] came out at 83%. Further, the “Control efficacy % 10d” value in experiment [1] was found to be 100%.

For the compound `CCCCCCCOC(=O)CC(C)NS(=O)(=O)c1ccc(C)cc1` (stereo not drawn) [compound 34, D,L N-4-methylbenzenesulfonyl-3-aminobutyric acid heptyl ester], the “Control efficacy % 7 days” value in experiment [3] was 70%.

For `CCCCCCCOC(=O)CC(C)NC(=O)c1ccc(Cl)cc1` (stereo not drawn) [compound 30, D,L N-4-cholrobenzoyl-3-aminobutyric acid heptyl ester], the “Control efficacy % 10d” value in experiment [1] is 91%.

Turning to `CC(CC(=O)OCCC(Cl)(Cl)Cl)NC(=O)c1ccccc1` (stereo not drawn) [compound 29, D,L N-benzoyl-3-aminobutyric acid 2-(trichloromethyl)ethyl ester], in experiment [1], the “Control efficacy % 10d” value is 91%. In addition, the “Control efficacy % 7 days” value in experiment [3] is listed as 70%.

Regarding `CCCCC(C)OC(=O)CC(C)NC(=O)c1cc(C)cc(C)c1` (stereo not drawn) [compound 23, D,L N-3,5-dimethylbezoyl-3-aminobutyric acid 1-methylpentyl ester], the “Control efficacy % 10d” value in experiment [1] is on record as 100%. Moreover, the “Control efficacy % 7 days” value in experiment [3] was 73%.

As to `CCCCCCCOC(=O)CC(C)NC(=O)c1cccc(C)c1` (stereo not drawn) [compound 22, D,L N-3-methylbezoyl-3-aminobutyric acid heptyl ester], in experiment [3], the “Control efficacy % 7 days” value is on record as 83%.

Take `COc1ccc(C(=O)NC(C)CC(=O)OCCCl)cc1` (stereo not drawn) [compound 28, D,L N-4-methoxybenzoyl-3-aminobutyric acid 2-chloroethyl ester]: in experiment [1], the “Control efficacy % 10d” value is reported as 91%.

As for `CCCCCC(C)OC(=O)CC(C)NC(=O)c1ccc(C)cc1` (stereo not drawn) [compound 43, D,L N-4-methylbenzoyl-3-aminobutyric acid 1-methylhexyl ester], the “Control efficacy (%) 7d” value in experiment [4] is reported as 75%.

In the case of `CCCCCCCOC(=O)CC(C)NC(=O)c1ccc(C)c(C)c1` (stereo not drawn) [compound 45, D,L N-3,4-dimethylbezoyl-3-aminobutyric acid heptyl ester], in experiment [4], the “Control efficacy (%) 7d” value is given as 71%.

Take “N-β-methylbenzoyl-1-aminobutyric acid-1-methyl-1-pentyl ester [Example 10]”: the Control Efficacy % in experiment [2] (3 days after inoculation) came to 100%; in experiment [2] (4 days after inoculation) it was 100%; in experiment [2] (6 days after inoculation) it was 97%; in experiment [2] (8 days after inoculation) it was 87%.

Consider `CCCCC(C)OC(=O)CC(C)NS(=O)(=O)c1ccc(Cl)cc1` (stereo not drawn) [compound 50, D,L N-4-chlorobenzensulfonyl-3-aminobutyric acid 1-methylpentyl ester], for which, in experiment [4], the “Control efficacy (%) 7d” value was found to be 92%.

For `COCC(C)OC(=O)CC(C)NS(=O)(=O)c1ccccc1` (stereo not drawn) [compound 31, D,L N-benzenesulfonyl-3-aminobutyric acid 1-methyl-2-methoxyethyl ester], the “Control efficacy % 10d” value in experiment [1] is 82%.

Take `CCCCCCCCCC(C)OC(=O)CC(C)NC(=O)c1ccc(C)cc1` (stereo not drawn) [compound 44, D,L N-4-methylbenzoyl-3-aminobutyric acid 1-methyldecanyl ester]: the “Control efficacy (%) 7d” value in experiment [4] was 74%.

In the case of `CC(CC(=O)OCCCc1ccccc1)NS(=O)(=O)c1ccccc1` (stereo not drawn) [compound 51, D,L N-benzensulphonyl-3-aminobutyric acid 3-phenylpropyl ester], the “Control efficacy % 10d” value in experiment [1] was 97%. Also, the “Control efficacy % 7 days” value in experiment [3] came out at 87%.

Regarding `Cc1cc(C)cc(C(=O)NC(C)CC(=O)OCCCl)c1` (stereo not drawn) [compound 27, D,L N-3,5-dimethylbezoyl-3-aminobutyric acid 2-chloroethyl ester], the “Control efficacy % 10d” value in experiment [1] came to 97%. Besides, the “Control efficacy % 7 days” value in experiment [3] is recorded as 73%.

In the case of `CCCCCCCOC(=O)CC(C)NC(=O)c1ccc(OC)cc1` (stereo not drawn) [compound 12, D,L N-4-methoxybenzoyl-3-aminobutyric acid heptyl ester], the “Control efficacy (%) 7d” value in experiment [4] came to 85%. For the same compound, the “Control efficacy % 7 days” value in experiment [3] is recorded as 100%.

Take `CCCCCCCOC(=O)CC(C)NC(=O)c1c(Cl)cccc1Cl` (stereo not drawn) [compound 24, D,L N-2,6-dichlorobenzoyl-3-aminobutyric acid heptyl ester]: in experiment [1], the “Control efficacy % 10d” value is listed as 100%.

As for `CNc1ccccc1C(=O)NC(C)CC(=O)OC` (stereo not drawn) [compound 47, D,L N-2-methylaminobenzoyl-3-aminobutyric acid methyl ester.], the “Control efficacy (%) 7d” value in experiment [4] is 81%.
